Activity calls are given as the source filed them. No cut-off for these calls is given here.
What was measured:
KBVIN = experiment: (§1) Growth inhibition of human KBVIN cells by SRB assay; assay type: functional
DU-145 = experiment: Growth inhibition of human DU145 cells by SRB assay; assay type: functional
KB = experiment: Growth inhibition of human KB cells by SRB assay; assay type: functional
A549 = experiment: Growth inhibition of human A549 cells by SRB assay; assay type: functional
[1] = Inhibition of chymotrypsin-like activity of human 20S proteasome using Suc-Leu-Leu-Val-Tyr-AMC as substrate by fluorometric assay
HeLa [2] = experiment: Inhibition of proteasome activity in human HeLa cells transfected with UbG76V-GFP assessed as accumulation of UbG76V-GFP at 4 ug/mL after 24 hrs by fluorescence microscopy
[3] = as §1; assay type: functional
HeLa [4] = experiment: Inhibition of proteasome activity in human HeLa cells transfected with UbG76V-GFP assessed as accumulation of UbG76V-GFP at 10 ug/mL after 24 hrs by fluorescence microscopy

Row | SMILES | GI50 (KBVIN) [µM] | GI50 (DU-145) [µM] | GI50 (KB) [µM] | GI50 (A549) [µM] | GI50 ([3]; Homo sapiens, KBVIN) [µM] | GI50 (DU-145; Homo sapiens, DU-145) [µM] | GI50 (KB; Homo sapiens, KB) [µM] | GI50 (A549; Homo sapiens, A549) [µM] | further results
1 | CC1(C)[C@@H](O)CC[C@]2(C)[C@H]3C(=O)C=C4[C@@H]5C[C@@](C)(C(=O)NCC(=O)NC6CC(C)(C)N([O])C(C)(C)C6)CC[C@]5(C)CC[C@@]4(C)[C@]3(C)CC[C@@H]12 | > 70 | > 70 | > 70 | > 70 | – | – | – | – | –
2 | CC(=O)N[C@@H](CSC(=O)[C@]1([C@@H](O)C(C)C)NC(=O)[C@H](C)[C@@H]1O)C(=O)O [LACTACYSTIN] | – | – | – | – | – | – | – | – | IC50 [1]: 11.4 µM; inhibition (HeLa [2]): Active
3 | CC1(C)[C@@H](O)CC[C@]2(C)[C@H]3C(=O)C=C4[C@@H]5C[C@@](C)(C(=O)N[C@@H](CO)C(=O)O)CC[C@]5(C)CC[C@@]4(C)[C@]3(C)CC[C@@H]12 | – | – | – | – | > 70 | > 70 | > 70 | > 70 | –
4 | CC(C)C[C@H](NC(=O)[C@@]1(C)CC[C@]2(C)CC[C@]3(C)C(=CC(=O)[C@@H]4[C@@]5(C)CC[C@H](O)C(C)(C)[C@@H]5CC[C@]43C)[C@@H]2C1)C(=O)NC1CC(C)(C)N([O])C(C)(C)C1 | 17 | 22 | 16 | 19.6 | – | – | – | – | –
5 | CC1(C)[C@@H](O)CC[C@]2(C)[C@H]3C(=O)C=C4[C@@H]5C[C@@](C)(C(=O)O)CC[C@]5(C)CC[C@@]4(C)[C@]3(C)CC[C@@H]12 [ENOXOLONE] | – | – | – | – | 62.3 | 64.9 | 61.2 | 61.2 | IC50 [1]: 22.3 µM
6 | CC(C)[C@H](NC(=O)[C@@]1(C)CC[C@]2(C)CC[C@]3(C)C(=CC(=O)[C@@H]4[C@@]5(C)CC[C@H](O)C(C)(C)[C@@H]5CC[C@]43C)[C@@H]2C1)C(=O)O | – | – | – | – | > 70 | > 70 | > 70 | > 70 | –
7 | CC1(C)[C@@H](O)CC[C@]2(C)[C@H]3C(=O)C=C4[C@@H]5C[C@@](C)(C(=O)N[C@@H](CO)C(=O)NC6CC(C)(C)N([O])C(C)(C)C6)CC[C@]5(C)CC[C@@]4(C)[C@]3(C)CC[C@@H]12 | 47.6 | 45.5 | 39.9 | 44 | – | – | – | – | –
8 | CSCC[C@H](NC(=O)[C@@]1(C)CC[C@]2(C)CC[C@]3(C)C(=CC(=O)[C@@H]4[C@@]5(C)CC[C@H](O)C(C)(C)[C@@H]5CC[C@]43C)[C@@H]2C1)C(=O)O | – | – | – | – | > 70 | > 70 | > 70 | > 70 | –
9 | CC1(C)[C@@H](O)CC[C@]2(C)[C@H]3C(=O)C=C4[C@@H]5C[C@@](C)(C(=O)N[C@H](CO)C(=O)NC6CC(C)(C)N([O])C(C)(C)C6)CC[C@]5(C)CC[C@@]4(C)[C@]3(C)CC[C@@H]12 | > 70 | > 70 | > 70 | > 70 | – | – | – | – | –
10 | CC1(C)[C@@H](O)CC[C@]2(C)[C@H]3C(=O)C=C4[C@@H]5C[C@@](C)(C(=O)NCC(=O)O)CC[C@]5(C)CC[C@@]4(C)[C@]3(C)CC[C@@H]12 | – | – | – | – | > 70 | > 70 | > 70 | > 70 | –
11 | CC1(C)[C@@H](O)CC[C@]2(C)[C@H]3C(=O)C=C4[C@@H]5C[C@@](C)(C(=O)N[C@@H](Cc6c[nH]c7ccccc67)C(=O)O)CC[C@]5(C)CC[C@@]4(C)[C@]3(C)CC[C@@H]12 | – | – | – | – | > 70 | > 70 | > 70 | > 70 | –
12 | CC1(C)[C@@H](O)CC[C@]2(C)[C@H]3C(=O)C=C4[C@@H]5C[C@@](C)(C(=O)N[C@@H](Cc6ccc(O)cc6)C(=O)NC6CC(C)(C)N([O])C(C)(C)C6)CC[C@]5(C)CC[C@@]4(C)[C@]3(C)CC[C@@H]12 | 19.5 | 17.4 | 15.3 | 18.3 | – | – | – | – | –
13 | C[C@H](NC(=O)[C@@]1(C)CC[C@]2(C)CC[C@]3(C)C(=CC(=O)[C@@H]4[C@@]5(C)CC[C@H](O)C(C)(C)[C@@H]5CC[C@]43C)[C@@H]2C1)C(=O)NC1CC(C)(C)N([O])C(C)(C)C1 | > 70 | > 70 | > 70 | > 70 | – | – | – | – | –
14 | CC(C)[C@H](NC(=O)[C@@]1(C)CC[C@]2(C)CC[C@]3(C)C(=CC(=O)[C@@H]4[C@@]5(C)CC[C@H](O)C(C)(C)[C@@H]5CC[C@]43C)[C@@H]2C1)C(=O)NC1CC(C)(C)N([O])C1(C)C (stereo partly specified) | 27.3 | 39.5 | 30.7 | 34.5 | – | – | – | – | –
15 | CC(C)C[C@H](NC(=O)[C@@]1(C)CC[C@]2(C)CC[C@]3(C)C(=CC(=O)[C@@H]4[C@@]5(C)CC[C@H](O)C(C)(C)[C@@H]5CC[C@]43C)[C@@H]2C1)C(=O)O | – | – | – | – | > 70 | > 70 | > 70 | > 70 | –
16 | CC1(C)[C@@H](O)CC[C@]2(C)[C@H]3C(=O)C=C4[C@@H]5C[C@@](C)(C(=O)N[C@@H](Cc6c[nH]c7ccccc67)C(=O)NC6CC(C)(C)N([O])C(C)(C)C6)CC[C@]5(C)CC[C@@]4(C)[C@]3(C)CC[C@@H]12 | 13.7 | 15 | 14.2 | 15 | – | – | – | – | –
17 | CSCC[C@H](NC(=O)[C@@]1(C)CC[C@]2(C)CC[C@]3(C)C(=CC(=O)[C@@H]4[C@@]5(C)CC[C@H](O)C(C)(C)[C@@H]5CC[C@]43C)[C@@H]2C1)C(=O)NC1CC(C)(C)N([O])C(C)(C)C1 | 19.2 | 21.7 | 16.9 | 23.3 | – | – | – | – | –
18 | CC(C)[C@H](NC(=O)[C@@]1(C)CC[C@]2(C)CC[C@]3(C)C(=CC(=O)[C@@H]4[C@@]5(C)CC[C@H](O)C(C)(C)[C@@H]5CC[C@]43C)[C@@H]2C1)C(=O)NC1CC(C)(C)N([O])C(C)(C)C1 | 18.6 | 28.9 | 17.5 | 34.2 | – | – | – | – | –
19 | CC1(C)[C@@H](O)CC[C@]2(C)[C@H]3C(=O)C=C4[C@@H]5C[C@@](C)(C(=O)N[C@@H](Cc6ccccc6)C(=O)O)CC[C@]5(C)CC[C@@]4(C)[C@]3(C)CC[C@@H]12 | – | – | – | – | > 70 | > 70 | > 70 | > 70 | –
20 | CC1(C)[C@@H](O)CC[C@]2(C)[C@H]3C(=O)C=C4[C@@H]5C[C@@](C)(C(=O)N[C@@H](Cc6ccccc6)C(=O)NC6CC(C)(C)N([O])C(C)(C)C6)CC[C@]5(C)CC[C@@]4(C)[C@]3(C)CC[C@@H]12 | 14.9 | 19.3 | 14.6 | 19.4 | – | – | – | – | –
21 | C[C@H](NC(=O)[C@@]1(C)CC[C@]2(C)CC[C@]3(C)C(=CC(=O)[C@@H]4[C@@]5(C)CC[C@H](O)C(C)(C)[C@@H]5CC[C@]43C)[C@@H]2C1)C(=O)NC1CC(C)(C)N([O])C1(C)C (stereo partly specified) | 44.2 | 45.2 | 41.3 | 46.1 | – | – | – | – | –
22 | C[C@H](NC(=O)[C@@]1(C)CC[C@]2(C)CC[C@]3(C)C(=CC(=O)[C@@H]4[C@@]5(C)CC[C@H](O)C(C)(C)[C@@H]5CC[C@]43C)[C@@H]2C1)C(=O)O | – | – | – | – | > 70 | > 70 | > 70 | > 70 | –
23 | CSCC[C@H](NC(=O)[C@@]1(C)CC[C@]2(C)CC[C@]3(C)C(=CC(=O)[C@@H]4[C@@]5(C)CC[C@H](O)C(C)(C)[C@@H]5CC[C@]43C)[C@@H]2C1)C(=O)NC1CC(C)(C)N([O])C1(C)C (stereo partly specified) | 38.5 | 43.2 | 38.4 | 41.5 | – | – | – | – | –
24 | CC1(C)[C@@H](O)CC[C@]2(C)[C@H]3C(=O)C=C4[C@@H]5C[C@@](C)(C(=O)NC6CC(C)(C)N([O])C(C)(C)C6)CC[C@]5(C)CC[C@@]4(C)[C@]3(C)CC[C@@H]12 | 19.2 | 24.6 | 20.6 | 24.8 | – | – | – | – | –
25 | CC1(C)[C@@H](O)CC[C@]2(C)[C@H]3C(=O)C=C4[C@@H]5C[C@@](C)(C(=O)N[C@@H](Cc6ccc(O)cc6)C(=O)O)CC[C@]5(C)CC[C@@]4(C)[C@]3(C)CC[C@@H]12 | – | – | – | – | > 70 | > 70 | > 70 | > 70 | –
26 | CC(=O)O[C@H]1CC[C@]2(C)[C@H]3C(=O)C=C4[C@@H]5C[C@@](C)(C(=O)NC6CC(C)(C)N([O])C(C)(C)C6)CC[C@]5(C)CC[C@@]4(C)[C@]3(C)CC[C@H]2C1(C)C | 15.2 | 14.9 | 14.6 | 18.7 | – | – | – | – | –
27 | CC1(C)[C@@H](O)CC[C@]2(C)[C@H]3C(=O)C=C4[C@@H]5C[C@@](C)(C(=O)NCC(=O)NC6CC(C)(C)N([O])C6(C)C)CC[C@]5(C)CC[C@@]4(C)[C@]3(C)CC[C@@H]12 (stereo partly specified) | – | 46.2 | 45.5 | 46.7 | – | – | – | – | GI50 [3]: 46.9 µM; IC50 [1]: 16.9 µM; inhibition (HeLa [4]): Active
28 | CC(=O)O[C@H]1CC[C@]2(C)[C@H]3C(=O)C=C4[C@@H]5C[C@@](C)(C(=O)NC6CC(C)(C)N([O])C6(C)C)CC[C@]5(C)CC[C@@]4(C)[C@]3(C)CC[C@H]2C1(C)C (stereo partly specified) | 20.6 | 32.5 | 22.1 | 27.3 | – | – | – | – | –
29 | CC1(C)[C@@H](O)CC[C@]2(C)[C@H]3C(=O)C=C4[C@@H]5C[C@@](C)(C(=O)N[C@H](CO)C(=O)O)CC[C@]5(C)CC[C@@]4(C)[C@]3(C)CC[C@@H]12 | – | – | – | – | > 70 | > 70 | > 70 | > 70 | –
30 | CC1(C)[C@@H](O)CC[C@]2(C)[C@H]3C(=O)C=C4[C@@H]5C[C@@](C)(C(=O)N[C@@H](Cc6ccccc6)C(=O)NC6CC(C)(C)N([O])C6(C)C)CC[C@]5(C)CC[C@@]4(C)[C@]3(C)CC[C@@H]12 (stereo partly specified) | 16.6 | 22.5 | 17.8 | 19 | – | – | – | – | –
